Publication PMC3085635 (Bioorganic & medicinal chemistry letters, 2011)
Where “and” joins values, the source holds several entries; their conditions need not be identical. Equal entries are not always repeated.

Key:
[1] = target: HIV-1 integrase (IN), 3′-processing (Human immunodeficiency virus type 1 group M subtype B, UniProt P12497); assay: biochemical
[2] = system: HIV-1 integrase N155H mutant; type: biochemical
[3] = system: HIV-1 vector with G140S/Q148H integrase; type: cell-based; conditions: antiviral, mutant vector in cultured cells
[4] = system: HIV-1 vector with N155H integrase; type: cell-based; conditions: antiviral, cultured cells
[5] = system: HIV-1 integrase Y143R mutant; type: biochemical
[6] = system: HIV-1 vector with Y143R integrase; type: cell-based; conditions: antiviral, cultured cells
[7] = target: HIV-1 integrase (IN), strand transfer, wild-type (Human immunodeficiency virus type 1 group M subtype B, UniProt P12497); assay: biochemical; conditions: Strand transfer IC50, in vitro IN assays as described in reference [4]
[8] = 3′-Processing IC50, in vitro IN assays as described in reference [4]

Row | SMILES | IC50 [1, 8] | other results
1 | O=C1c2ccc(O)c(O)c2C(=O)N1Cc1ccc(F)c(F)c1 [3-3, reference compound] | 27 ± 1 µM | –
2 | O=C1c2c(c3n(c(=O)c2O)CCCCCC3)C(=O)N1Cc1ccc(F)c(Cl)c1 [4d-1] | > 111 µM | –
3 | O=C1c2ccc(O)c(O)c2C(=O)N1Cc1cccc(Cl)c1F [3-4, reference compound] | 25 ± 16 µM | –
4 | O=C1c2ccc(O)c(O)c2C(=O)N1Cc1ccc(F)cc1 [3-2, reference compound] | 8 ± 3 µM | –
5 | O=C1c2c(c3n(c(=O)c2O)CCCCC3)C(=O)N1Cc1ccc(F)c(Cl)c1 [4c-1] | > 111 µM | –
6 | O=C1c2c(c3n(c(=O)c2O)CCCC3)C(=O)N1Cc1ccc(F)c(Cl)c1 [4b-1] | > 111 µM | fold less sensitive than Raltegravir to the N155H mutation [2]: more than 2 fold; times less sensitive than Raltegravir to the G140S/Q148H mutation [3]: 200 times; fold lower loss of potency compared to Raltegravir, N155H vector [4]: 10 fold; fold less sensitive than Raltegravir to the Y143R mutation [5]: more than 10 fold; fold lower loss of potency compared to Raltegravir, Y143R vector [6]: 10 fold; cytotoxicity fold lower than 3-1 (cultured cells): 30 fold; IC50 ([1]; 3′-P IC50, metal cofactor Mg2+): > 111 µM
7 | O=C1c2c(c3n(c(=O)c2O)CCCCC3)C(=O)N1Cc1ccc(F)c(F)c1 [4c-3] | > 111 µM | –
8 | O=C1c2c(c3n(c(=O)c2O)CCCCC3)C(=O)N1Cc1cccc(Cl)c1F [4c-4] | > 111 µM | –
9 | O=C1c2c(c3n(c(=O)c2O)CCCCC3)C(=O)N1Cc1ccccc1 [4c-5] | > 111 µM | IC50 [7]: > 111 µM
10 | O=C1c2ccc(O)c(O)c2C(=O)N1Cc1ccccc1 [3-5] | 72 ± 23 µM | IC50 [7]: 0.4 µM and 0.39 µM
11 | O=C1c2c(c3n(c(=O)c2O)CCCCC3)C(=O)N1Cc1cccc2ccccc12 [4c-6] | > 111 µM | –
12 | O=C1c2c(c3n(c(=O)c2O)CCC3)C(=O)N1Cc1ccc(F)c(Cl)c1 [4a-1] | > 111 µM | –
13 | O=C1c2ccc(O)c(O)c2C(=O)N1Cc1cccc2ccccc12 [3-6] | 150 ± 36 µM | IC50 [7]: 0.7 µM and 0.72 µM
14 | O=C1c2c(c3n(c(=O)c2O)CCCCC3)C(=O)N1Cc1ccc(F)cc1 [4c-2] | > 111 µM | –
15 | O=C1c2ccc(O)c(O)c2C(=O)N1Cc1ccc(F)c(Cl)c1 [3-1, reference compound] | 14 ± 3 µM | IC50 [7]: 0.17 ± 0.06 µM
